Measurements as given in ChEMBL document CHEMBL1153094, “Spectroscopic and biological studies of a novel synthetic chlorin derivative with prospects for use in PDT” (Bioorg Med Chem, 2009).
Activity calls are given as the source filed them. No cut-off for these calls is given here.

Columns and labels:
[1] = test system: Lewis lung carcinoma cell line; assay: Antiproliferative activity against mouse LLC cells assessed as survival fraction at 0.5 uM dissolved in DMSO after 4 hrs pretreated with 15 J/cm2 red light-irradiation by MTS reduction assay; assay type: functional
[2] = test system: Lewis lung carcinoma cell line; assay: Antiproliferative activity against mouse LLC cells assessed as survival fraction at 0.5 uM in liposomal delivery system after 12 hrs pretreated with 15 J/cm2 red light-irradiation by MTS reduction assay; assay type: functional
[3] = test system: Lewis lung carcinoma cell line; assay: Antiproliferative activity against mouse LLC cells assessed as survival fraction at 0.5 uM after 4 hrs pretreated with 15 J/cm2 red light-irradiation by MTS reduction assay; assay type: functional
[4] = test system: Lewis lung carcinoma cell line; assay: Antiproliferative activity against mouse LLC cells assessed as survival fraction at 0.5 uM dissolved in DMSO after 12 hrs pretreated with 15 J/cm2 red light-irradiation by MTS reduction assay; assay type: functional
[5] = Cytotoxicity against mouse LLC cells assessed as survival fraction at 0.1 to 1.5 uM after 12 hrs by MTS reduction assay under dark condition; assay type: cell-based; settings: lewis lung carcinoma
[6] = Cytotoxicity against mouse LLC cells assessed as change in cell morphology at 2 uM after 12 hrs by fluorescence microscopy under dark condition; assay type: cell-based; settings: lewis lung carcinoma
[7] = test system: Lewis lung carcinoma cell line; assay: Antiproliferative activity against mouse LLC cells assessed as nuclear damage at 2 uM in liposomal delivery system after 12 hrs pretreated with 15 J/cm2 red light-irradiation by fluorescence microscopy; assay type: functional, cell-based
[8] = test system: Lewis lung carcinoma cell line; assay: Antiproliferative activity against mouse LLC cells assessed as survival fraction at 0.5 uM in liposomal delivery system after 4 hrs pretreated with 15 J/cm2 red light-irradiation by MTS reduction assay; assay type: functional
[9] = test system: Lewis lung carcinoma cell line; assay: Antiproliferative activity against mouse LLC cells assessed as DNA […] at 2 uM in liposomal delivery system after 12 hrs pretreated with 15 J/cm2 red light-irradiation by fluorescence microscopy; assay type: functional, cell-based
[10] = Cytotoxicity against mouse LLC cells assessed as survival fraction at 0.1 to 1.5 uM after 4 hrs by MTS reduction assay under dark condition; assay type: cell-based; settings: lewis lung carcinoma
[11] = test system: Lewis lung carcinoma cell line; assay: Antiproliferative activity against mouse LLC cells assessed as F-actin construction damage at 2 uM in liposomal delivery system after 12 hrs pretreated with 15 J/cm2 red light-irradiation by fluorescence microscopy; assay type: functional, cell-based
[12] = test system: Lewis lung carcinoma cell line; assay: Antiproliferative activity against mouse LLC cells assessed as survival fraction at 5 uM after 24 hrs pretreated with 15 J/cm2 red light-irradiation by MTS reduction assay; assay type: functional

SMILES	Activity [1]	Activity [2]	Activity [3]	Activity [4]	Activity [5]	Activity [6]	Activity [7]	Activity [8]	Activity [9]	Activity [10]	Activity [11]	Activity [12]
CCCCCCCC1c2cc3[nH]c(cc4nc(cc5[nH]c(cc(n2)[C@]1(C)CC(=O)N(C)C)c(C)c5CCC(=O)O)C(CCC(=O)O)=C4C)cc3C (mixture of isomers)	70.6%	34.8%	22.3%	74.4%	Non-toxic	Toxic	Active	20.3%	Active	Non-toxic	Active	–
C=CC1=C(C)c2cc3[nH]c(cc4nc(cc5[nH]c(cc1n2)c(C)c5CCC(=O)[O-])C(CCC(=O)[O-])=C4C)c(C)c3C=C.[Na+].[Na+] [PROTOPORPHYRIN DISODIUM]	–	–	–	–	–	–	–	–	–	–	–	60.7%
